A short description of data set [1]: Gastric tolerability after two weeks oral treatment in L-NAME hypertensive rats. Conditions: 10 mg/kg daily for two weeks, hypertension induced by L-NAME 400 mg/liter in drinking water. Format: in vivo. The protocol:
(§1) The experiment was carried out according to the method described by M. N. Muscarà et al. Br. J. Pharmacol. 133, 1314, 2001, and employing groups of 10 rats weighing each 200-250 g.
(§2) The compounds, suspended in 1% carboxymethylcellulose, were administered orally for two weeks at a daily dose of 10 mg/kg body weight.
(§3) Hypertension was induced by addition of L-NAME (N-omega-nitro-L-arginine methylester) to the drinking water at a concentration of 400 mg/liter. At the end of the treatment, the blood pressure was determined by introduction of a cannula into femoral artery and measurement with polygraphic transducer, 16 hours after the last administration.

Data set [2] is described as follows: Blood pressure effect after two weeks oral treatment in L-NAME hypertensive rats. Format: in vivo. Conditions: 10 mg/kg daily for two weeks, L-NAME in drinking water, femoral artery cannula, 16 hours after the last administration. The protocol: as §1, §2, §3

Consider `Cc1ccc(-c2cc(C(F)(F)F)nn2-c2ccc(S(=O)(=O)NC(=O)CCCO[N+](=O)[O-])cc2)cc1` [Example 4, N-[4-[5-(4-methylphenyl)-3-(trifluoromethyl)-1H-pyrazol-1-yl]phenylsulfonyl]-4-nitrooxy-butanamide], for which, in data set [1], the gastric tolerability entry is “well tolerated”. In data set [2], the “effect on blood pressure” value is “no increase of the blood pressure”.
Take `Cc1ccc(-c2cc(C(F)(F)F)nn2-c2ccc(S(N)(=O)=O)cc2)cc1` [celecoxib, 4-[5-(4-methylphenyl)-3-(trifluoromethyl)-1H-pyrazol-1-yl]benzenesulfon-amide]: in data set [1], the “gastric damage, share of the treated animals” value is 80%. The “increase of the blood pressure (average)” value in data set [2] was 15 mmHg.

The record behind these values is US7776902B2, “Nitrooxyderivatives of cyclooxygenase-2 inhibitors” (Nicox S.A., priority 2002, dated 2010).
